{"source": "patent US20240400579A1", "about": "“SPIROCYCLIC MODULATORS OF CHOLESTEROL BIOSYNTHESIS AND THEIR USE FOR PROMOTING REMYELINATION” (GENENTECH, INC., priority 2021, published 2024)", "key": {"human EBP": {"target": "human EBP (Homo sapiens (Human), UniProt Q15125)", "sequence (Q15125 whole entry)": "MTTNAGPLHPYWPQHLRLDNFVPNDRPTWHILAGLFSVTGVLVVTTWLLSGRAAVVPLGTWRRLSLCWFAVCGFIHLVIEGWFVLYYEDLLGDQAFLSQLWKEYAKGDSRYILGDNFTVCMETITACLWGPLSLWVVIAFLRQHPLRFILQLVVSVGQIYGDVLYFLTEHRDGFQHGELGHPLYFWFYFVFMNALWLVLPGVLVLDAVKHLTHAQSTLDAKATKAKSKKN", "assay": "Competition binding assay (SPA) to determine compound affinity to EBP", "settings": "radioligand [3H]-Ifenprodil 10 nM; Ki=IC50/(1+[L]/Kd); HEK293 membrane; read-out: hEBP SPA Ki", "description": "Membrane preparation: To examine compound binding affinity to EBP, human EBP was overexpressed in human embryonic kidney 293 cells. Cell pellet was lysed in 10 times weight binding buffer (50 mM Tris, 5 mM MgCl2, 0.1 mM EDTA, 1× protease inhibitor cocktail, pH 7.5) on ice by using a dounce homogenizer. The solution was centrifuged at 25,000 g for 50 min at 4° C. The membrane pellet was re-suspended in binding buffer and run through a 25 5/8 gauge needle. After checking the concentration by Bradford assay, the whole cell membrane solution was adjusted to 20 mg/mL and stored at −80° C.\nThis binding solution was centrifuged at 400 g for 5 minutes to collect the bead/membrane mixture. After re-suspending the pellet in binding buffer at the same calculated volume with 0.01% BSA (Sigma A1933), the bead/membrane mixture was added in 384-well low-binding surface plate (PerkinElmer Cat #6057480) at 25 i/well. Radioligand at different concentrations with and without the non-radio-labeled same ligand 5 uM (for nonspecific and total signal, respectively) was added to bring final volume to 50 i/well with DMSO concentration at 0.1%. At equilibrium (3 hours after ligand addition), radiometric signal CPM was counted by using a Microbeta2 microplate counter (Perkinelmer).\nCompetition binding assay to determine compound affinity: The same conditions of the radioligand Kd study were used for compound single dose percentage inhibition and equilibrium dissociation constant Ki examinations, except 50 nL compound DMSO stock was pre-added in 384-well low-binding surface plate (PerkinElmer Cat #6057480) by Echo 550 (Labcyte) to reach the final concentration for single dose test at 1 uM, and dose response test from 0.06 nM to 5 uM (8 dose, 5 times dilution). A pre-incubated bead/membrane mixture was added in compound plate at 0.3 mg beads and […] membrane per well. […] At equilibrium (3 hours after ligand addition), radiometric signal was counted as described above. The percentage inhibition of compound at each testing concentration was calculated by normalizing each condition's CPM readout to full block (5 uM non-radiolabeled ligand) and non-block (DMSO) control conditions. Compound binding inhibition IC50 was determined by nonlinear regression fitting of percentage inhibition plot against compound concentration. Compound Ki was calculated from the equation Ki=IC50/(1+[L]/Kd), which [L] was radioligand concentration used in assay. All tests had N bigger or equal to 2."}, "[1]": {"target": "human emopamil binding protein and human 7-dehydrocholesterol reductase co-expressing cell membrane (Homo sapiens (Human), UniProt Q15125)", "sequence (Q15125 whole entry)": "as above", "assay": "hEBP-DHCR7 radioligand filtration binding assay with [3H]-Compound 118A*", "settings": "radioligand [3H]-Compound 118A*; HEK293 membrane co-expressing hEBP and DHCR7", "in_short": "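HEK293 membranes transiently co-expressing hEBP and hDHCR7 (10 μg/well) were incubated with [3H]-Compound 118A* (added at 25 nM) and compounds (8 doses, final 0.06–5000 nM, n=2) for 3 h at 22 °C. Bound radioactivity was read after PEI-treated GF/B filtration. IC50 came from a Hill fit of % inhibition and was converted to Ki.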"}, "[2]": {"system": "zymostenol accumulation in EpiSC-derived OPCs (EBP)", "assay": "GC/MS-based sterol profiling, zymostenol accumulation", "assay_type": "cell-based, mouse", "settings": "Mus musculus, 24 h, 8 doses from 0.15 nM to 333 nM, read-out: mZymo GCMS EC50", "in_short": "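EpiSC-derived mouse OPCs plated at 100,000 cells/well in N2B27 without growth factors and treated 24 h. Sterols extracted, silylated with BSTFA and measured by GC/MS (EI, full scan), quantified against cholesterol-d7. Zymostenol normalized to levels after 24 h with 100 nM positive control reference.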"}, "EpiSC-derived OPCs": {"system": "EpiSC-derived OPCs", "assay": "In vitro phenotypic screening of OPCs, MBP high-content imaging", "assay_type": "cell-based, mouse", "settings": "Mus musculus, 72 h, percentage of MBP+ oligodendrocytes; 3 days; 0.5 nM to 1000 nM; read-out: mOPC EC50", "in_short": "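Mouse EpiSC-derived OPCs seeded without growth factors and exposed 3 days at 37° C. to 8-point doses, 1000 nM to 0.5 nM final. Fixed cells stained for MBP and DAPI; high-content imaging gave percentage MBP+ oligodendrocytes, with EC50 from Hill-equation fit.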"}}, "data": [{"compound": "CC(C)(CN1CCC2(C1)CS(=O)(=O)C2)Oc1ccccc1F", "note": "[Example 133, 6-(2-(2-Fluorophenoxy)-2-methylpropyl)-2-thia-6-azaspiro[3.4]octane 2,2-dioxide]", "values": [{"measurement": "Ki", "setting": "human EBP", "value": 0.089, "unit": "µM"}, {"measurement": "Ki", "setting": "[1]", "value": 0.0866, "unit": "µM"}, {"measurement": "EC50", "setting": "[2]", "value": 0.072, "unit": "µM"}]}, {"compound": "C[C@H](Cc1cnc(C(F)(F)F)nc1)CN1CCC2(C1)CS(=O)(=O)C2", "note": "(single isomer, unassigned) [Compound 145B]", "values": [{"measurement": "Ki", "setting": "human EBP", "value": 0.1, "unit": "µM"}, {"measurement": "Ki", "setting": "[1]", "value": 0.106, "unit": "µM"}, {"measurement": "EC50", "setting": "[2]", "value": 0.055, "unit": "µM"}]}, {"compound": "CC(Cc1cc(C(F)(F)F)nn1C(C)C)CN1CCC2(C1)CS(=O)(=O)C2", "note": "(racemic) [Example 155, (S)-6-(3-(1-Isopropyl-3-(trifluoromethyl)-1H-pyrazol-5-yl)-2-methylpropyl)-2-thia-6-azaspiro[3.4]octane 2,2-dioxide and (R)-6-(3-(1-isopropyl-3-(trifluoromethyl)-1H-pyrazol-5-yl)-2-methylpropyl)-2-thia-6-azaspiro[3.4]octane 2,2-dioxide]", "values": [{"measurement": "Ki", "setting": "human EBP", "value": 0.014, "unit": "µM"}, {"measurement": "Ki", "setting": "[1]", "value": 0.187, "unit": "µM"}, {"measurement": "EC50", "setting": "[2]", "value": 0.003, "unit": "µM"}]}, {"compound": "CC(C)(CN1CCC2(C1)CS(=O)(=O)C2)Oc1ccc(F)cc1", "note": "[Example 132, 6-(2-(4-Fluorophenoxy)-2-methylpropyl)-2-thia-6-azaspiro[3.4]octane 2,2-dioxide]", "values": [{"measurement": "Ki", "setting": "human EBP", "value": 0.026, "unit": "µM"}, {"measurement": "Ki", "setting": "[1]", "value": 0.0147, "unit": "µM"}, {"measurement": "EC50", "setting": "[2]", "value": 0.0072, "unit": "µM"}]}, {"compound": "C[C@@H](Cc1cnn(CC(F)(F)F)c1)CN1CCC2(C1)CS(=O)(=O)C2", "note": "(single isomer, unassigned) [Compound 154A]", "values": [{"measurement": "Ki", "setting": "human EBP", "value": 0.059, "unit": "µM"}, {"measurement": "Ki", "setting": "[1]", "value": 0.176, "unit": "µM"}, {"measurement": "EC50", "setting": "[2]", "value": 0.2, "unit": "µM"}]}, {"compound": "C[C@H](Cc1ccc(C(F)F)cc1)CN1CCC2(C1)CS(=O)(=O)C2", "note": "(single isomer, unassigned) [Compound 128B]", "values": [{"measurement": "Ki", "setting": "human EBP", "value": 0.045, "unit": "µM"}, {"measurement": "Ki", "setting": "[1]", "value": 0.0257, "unit": "µM"}, {"measurement": "EC50", "setting": "[2]", "value": 0.0048, "unit": "µM"}]}, {"compound": "O=S1(=O)CC2(CCN(CC(F)Cc3ccc(C(F)(F)F)cc3)C2)C1", "note": "(racemic) [Example 142, (S)-6-(2-Fluoro-3-(4-(trifluoromethyl)phenyl)propyl)-2-thia-6-azaspiro[3.4]octane 2,2-dioxide and (R)-6-(2-fluoro-3-(4-(trifluoromethyl)phenyl)propyl)-2-thia-6-azaspiro[3.4]octane 2,2-dioxide]", "values": [{"measurement": "Ki", "setting": "human EBP", "value": 0.035, "unit": "µM"}, {"measurement": "Ki", "setting": "[1]", "value": 0.0161, "unit": "µM"}, {"measurement": "EC50", "setting": "[2]", "value": 0.014, "unit": "µM"}]}, {"compound": "C[C@H](Cc1cnn(CC(F)(F)F)c1)CN1CCC2(C1)CS(=O)(=O)C2", "note": "(single isomer, unassigned) [Compound 154B]", "values": [{"measurement": "Ki", "setting": "human EBP", "value": 0.053, "unit": "µM"}, {"measurement": "Ki", "setting": "[1]", "value": 0.143, "unit": "µM"}, {"measurement": "EC50", "setting": "[2]", "value": 0.25, "unit": "µM"}]}, {"compound": "O=S1(=O)CC2(CCN(CC[C@H](F)c3ccc(C(F)(F)F)nc3)CC2)C1", "note": "(single isomer, unassigned) [237A*]", "values": [{"measurement": "Ki", "setting": "[1]", "value": 0.0896, "unit": "µM"}, {"measurement": "EC50", "setting": "[2]", "value": 0.0301, "unit": "µM"}, {"measurement": "EC50", "setting": "EpiSC-derived OPCs", "value": 0.0269, "unit": "µM"}]}, {"compound": "C[C@H](Cc1ccc(C(F)(F)F)cc1)CN1CC2(CCS(=O)(=O)CC2)C1", "note": "(single isomer, unassigned) [232A*]", "values": [{"measurement": "Ki", "setting": "[1]", "value": 0.0139, "unit": "µM"}, {"measurement": "EC50", "setting": "[2]", "value": 0.002, "unit": "µM"}, {"measurement": "EC50", "setting": "EpiSC-derived OPCs", "value": 0.0056, "unit": "µM"}]}, {"compound": "C[C@H](CN1CCC2(CC1)CS(=O)(=O)C2)Oc1ccc(C(F)(F)F)nc1", "note": "(single isomer, unassigned) [Example 207B*]", "values": [{"measurement": "Ki", "setting": "[1]", "value": 0.0653, "unit": "µM"}, {"measurement": "EC50", "setting": "[2]", "value": 0.0098, "unit": "µM"}, {"measurement": "EC50", "setting": "EpiSC-derived OPCs", "value": 0.063, "unit": "µM"}]}, {"compound": "O=S1(=O)CC2(CCN(CC3(Oc4ccc(C(F)(F)F)cc4)CCCC3)CC2)C1", "note": "[Example 202, 7-((1-(4-(Trifluoromethyl)phenoxy)cyclopentyl)methyl)-2-thia-7-azaspiro[3.5]nonane 2,2-dioxide]", "values": [{"measurement": "Ki", "setting": "[1]", "value": 0.0147, "unit": "µM"}, {"measurement": "EC50", "setting": "[2]", "value": 0.042, "unit": "µM"}, {"measurement": "EC50", "setting": "EpiSC-derived OPCs", "value": 0.22, "unit": "µM"}]}]}
